Values quoted from earlier work in US6919088B2 (priority 2002, dated 2005).

Assays:
[1] = test system: decorin and procollagen-I; details: in vitro testing compared to retinoic acid
[2] = test system: arachadonic acid in tissue lipids; details: rats, dietary triacylglycerols

CCCCCCCCCCC/C=C\CCCCC(=O)O [petroselinic acid, cis-6-octadecenoic acid]
upregulating and increasing synthesis of decorin and procollagen-I [1]: more effective than retinoic acid | levels of arachadonic acid in tissue lipids [2]: reduce the levels of arachadonic acid
